According to patent publication US20070265451A1, “Process for the preparation of oxazolidinones and method of use thereof” (Board of Trustees of Michigan State University, priority 2001, published 2007):
In brackets after ≈: the same amount, converted by molar mass.

Key:
[1] = test system: Staphylococcus aureus 29213; experiment: Broth microdilution MIC, Staphylococcus aureus ATCC 29213; assay type: cell-based; details: Staphylococcus aureus, ATCC29213, Table 2; read-out: MIC(90-100) SA-ATCC 29213
Description: See, NCCLS document M7-A5. Methods for Dilution Antimicrobial Susceptibility Tests for Bacteria That Grow Aerobically; Approved Standard-Fifth Edition. Volume 20, Number 2. January 2000, (ISBN 1-56238-394-9) and Lorian V. Antibiotics. Laboratory Medicine. 4th ed. Baltimore: Williams and Wilkins, pp. 52-111 (1996). For subsequent testing, the following strains have been used: Staphylococcus aureus NRS4 (992; HIP5836; New Jersey) (Smith et al., New Engl. J. Med. 340: 493-501 (1999); Tenover et al., J. Clin. Microbiol. 36: 1020-1027 (1998)), Staphylococcus aureus NRS3 (963sm; HIP5827; Michigan) (Smith et al., ibid.; Tenover et al., ibid.), Staphylococcus aureus NRS103 (Becker) (Karakawa and Vann, Sem. Infect. Dis. 4: 285 (1982), Staphylococcus aureus NRS102 (Reynolds) Karakawa and Vann, ibid; McMurray et al., JID 162: 759-762 (1990)), Staphylococcus epidermidis NRS101 (ATCC 35984), Streptococcus pneumoniae (ATCC 49619), Enterococcus faecalis (ATCC 51299), and Staphylococcus aureus (ATCC 43300.
Stock cultures of these strains were obtained by seeding colonies from overnight streak plates (Tryptic Soy Agar II (TSAII) and 5% sheep's blood (SB) agar plates: Becton Dickinson, CA#2211261) into sterile Mueller-Hinton Broth (MHB)(Becton Dickinson, CA#211443) and growing the suspensions to mid-late log phase in 13 mL screw-cap tubes. Glycerol (Sigma, CA#G-6279) was sterilized by autoclaving for 15 minutes at 121° C. in 6 mL volumes, and then stored at 2-8° C. This was diluted to 20% in dH2O, and then added 1:1 (250 μL:250 μL, 10% final glycerol concentration) to the logarithmically growing bacterial suspension of each strain. Tubes were frozen and stored at −70° C. Purity of the stock cultures was tested by thawing one tube of each strain in a water bath at 37° C. and plating them on TSAII with 5% SB. Plates were incubated overnight at 37° C. and colonies were examined for morphology. Growth curves and approximate CFU/mL were also obtained.
High purity substituted oxazolidinones prepared according to the method of the present invention and a ZYVOX standard (ZYVOX is a trade name for linezolid available from Pharmacia Corporation) were provided by Synthon Corporation, Monmouth Junction, N.J. Compounds were dissolved at 10 mg/mL in DMSO, as after a dilution of approx. 39.0 to reach the desired final starting concentration of 256 ug/ml, the concentration of DMSO is approximately 2.5%. Compounds were then stored at room temperature (25° C.) in the dark.
Antimicrobial susceptibility screening was as follows. All compounds were initially screened for activity in duplicate at 256 μg/mL (2.5% DMSO), including ZYVOX, the positive control for antimicrobial activity. A single well of bacterially inoculated 2.5% DMSO served as a positive control for bacterial growth, while a well of DMSO inoculated with of 50 μL of sterile 0.9% saline served as a negative growth control. Controls were prepared on every microplate, so that 46 was the maximum number of compounds that were screened per plate. Broth was pipetted into sterile microcentrifuge tubes, to which the compounds were then added (1:19.53 dilution or 2× final concentration). Each tube was vortexed, and 50 μL was immediately transferred to the microplate wells for each strain. Solubility was assessed by visual observation. MB (medium broth solubility) was recorded if the solution appeared only slightly cloudy. LB (low broth solubility) was recorded if the solution was extremely cloudy, and especially if larger, clumpy precipitates formed. Bacteria were grown as described above, although absorbance was measured at 650 nm and bacteria were diluted to an initial OD of 0.12-0.15. Bacteria were then further diluted 1:100 with 0.9% sterile saline. Within 15 minutes of this final dilution, 50 μL of this suspension was added to each well for a final volume of […], and a final bacterial concentration of 1×10^5 CFU/mL (except for the negative control well). Plates were grown as above and all observations were recorded. […]

[2] = test system: Enterococcus faecalis 29212; experiment: Broth microdilution MIC, Enterococcus faecalis ATCC 29212; assay type: cell-based; details: Enterococcus faecalis, ATCC29212, Table 2; read-out: MIC(90-100) EF-ATCC 29212

| Compound | MIC [1] [µg/mL] | MIC [2] [µg/mL] |
| --- | --- | --- |
| CCOC(=O)/C=C/N1CC(COS(=O)(=O)c2ccc(Cl)c([N+](=O)[O-])c2)OC1=O (centres unmarked) [Compound 695] | 62.5 (≈ 144 µM) |  |
| CC(C)N1C[C@@H](CNS(=O)(=O)c2ccc([N+](=O)[O-])cc2)OC1=O [Compound 860] | 64 (≈ 186 µM) |  |
| CC(C)N1C[C@@H](CNS(=O)(=O)c2ccc([N+](=O)[O-])cc2[N+](=O)[O-])OC1=O [Compound 870] | 16 (≈ 41.2 µM) |  |
| CCCCN1CC(COS(=O)(=O)c2cccc3nsnc23)OC1=O (centres unmarked) [Compound 905] | 256 (≈ 689 µM) |  |
| CCOC(=O)CC(C)(C)C(=O)CN1C[C@H](COS(=O)(=O)c2ccc([N+](=O)[O-])cc2)OC1=O [Compound 921] | 256 (≈ 542 µM) |  |
| CCC#CCN1C[C@H](COS(=O)(=O)c2ccc(Cl)c3nonc23)OC1=O [Compound 924] | 256 (≈ 640 µM) |  |
| O=C1O[C@@H](COS(=O)(=O)c2ccc([N+](=O)[O-])cc2)CN1C(=O)C1CC1 [Compound 929] | 64 (≈ 173 µM) |  |
| O=C1O[C@@H](COS(=O)(=O)c2ccc([N+](=O)[O-])cc2)CN1C(=O)c1ccco1 [Compound 942] | 32 (≈ 80.7 µM) |  |
| CC(C)N1C[C@H](COS(=O)(=O)c2ccc([N+](=O)[O-])cc2)OC1=O [Compound 952] | 32 (≈ 92.9 µM) |  |
| CC(C)(C)OC(=O)/C=C/N1C[C@@H](COS(=O)(=O)c2ccc([N+](=O)[O-])cc2)OC1=O [Compound 1001] | 64 (≈ 149 µM) | 125 (≈ 292 µM) |
| CN(C)C(=O)CN1C[C@@H](COS(=O)(=O)c2ccc(Cl)c3nonc23)OC1=O [Compound 1026] | 256 (≈ 611 µM) |  |
| COC(=O)CN1C[C@@H](COS(=O)(=O)c2ccc(Cl)c([N+](=O)[O-])c2)OC1=O [Compound 1058] | 256 (≈ 626 µM) |  |
| CC(=O)CN1C[C@@H](COS(=O)(=O)c2ccc([N+](=O)[O-])cc2)OC1=O [Compound 1063] | 16 (≈ 44.7 µM) |  |
| CC(=O)CN1C[C@@H](COS(=O)(=O)c2ccc(Cl)c3nonc23)OC1=O [Compound 1066] | 256 (≈ 657 µM) |  |
| CC(=O)CN1C[C@@H](COS(=O)(=O)c2ccc(Cl)c([N+](=O)[O-])c2)OC1=O [Compound 1081] | 256 (≈ 652 µM) |  |
| CC(=O)OC(C(=O)OC[C@@H]1CN(C)C(=O)O1)c1ccccc1 (some centres unmarked) [Compound 1097] | 32 (≈ 104 µM) |  |
| CCCCN1CC(COS(=O)(=O)c2ccc(Cl)c3nonc23)OC1=O (centres unmarked) [Compound 1141] | 64 (≈ 164 µM) | 128 (≈ 328 µM) |
| CCOC(=O)/C=C/N1C[C@@H](COS(=O)(=O)c2ccc([N+](=O)[O-])cc2)OC1=O [Compound 1160] | 128 (≈ 320 µM) |  |
| CCN1C[C@@H](COS(=O)(=O)c2ccc(Cl)c3nonc23)OC1=O [Compound 1196] | 256 (≈ 708 µM) | 128 (≈ 354 µM) |
| CCN1C[C@@H](COS(=O)(=O)c2ccc(Cl)c([N+](=O)[O-])c2)OC1=O [Compound 1210] | 256 (≈ 702 µM) |  |
| CN(C)C(=O)/C=C/N1C[C@@H](COC(=O)c2cc(Cl)sc2Cl)OC1=O [Compound 1629] | 256 (≈ 651 µM) | 64 (≈ 163 µM) |
| CN(C)C(=O)/C=C/N1C[C@@H](COC(=O)c2csc(-c3ccccc3)n2)OC1=O [Compound 1631] | 16 (≈ 39.9 µM) | 16 (≈ 39.9 µM) |
| CN(C)C(=O)/C=C/N1C[C@@H](COS(=O)(=O)c2ccc([N+](=O)[O-])cc2)OC1=O [Compound 1632] | 16 (≈ 40.1 µM) | 64 (≈ 160 µM) |
| O=C1O[C@@H](COc2cccc3c(O)cccc23)CN1c1ccc([N+](=O)[O-])cc1 [Compound 1960] | 32 (≈ 84.1 µM) | 8 (≈ 21 µM) |
| O=C1O[C@@H](COc2ccc3c4c2CCCN4CCC3)CN1c1ccc([N+](=O)[O-])cc1 [Compound 1965] | 32 (≈ 78.2 µM) | 8 (≈ 19.5 µM) |
| O=C1NCC(COS(=O)(=O)c2ccc([N+](=O)[O-])cc2)O1 (centres unmarked) [Compound 1985] | 8 (≈ 26.5 µM) | 124 (≈ 410 µM) |
